From the supplement of paper PMC10307832

Legend:
Test in all cases: relative viability (nuclei count vs DMSO), 5 days (fraction); higher = more cells survive
IU1-47 + Crizotinib = compound: CC1=CC(=C(N1C2=CC=C(C=C2)Cl)C)C(=O)CN3CCCCC3 [IU1-47] + C[C@@H](Oc1cc(-c2cnn(C3CCNCC3)c2)cnc1N)c1c(Cl)ccc(F)c1Cl [Crizotinib] (partner 1 µM)
Outline: (§1)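 Nuclei were stained with Hoechst during a one-step fixation (final 0.05% Triton X-100, 1% formaldehyde, 1 ug/ml Hoechst) carried out 5 days after dosing, then counted on 4× images. The cells, lung cancer lines in 1536-well plates, had been dosed by pin tool the day after seeding with one drug alone or a fixed anchor-drug dose plus five library-drug doses (not always all listed) in √10 steps. Relative viability is the nuclei count in treated wells divided by that in vehicle wells, and each value is the median of duplicate plates.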

FG-4592 + Palbociclib = compound: Cc1nc(C(=O)NCC(=O)O)c(O)c2ccc(Oc3ccccc3)cc12 [FG-4592] + CC(=O)c1c(C)c2cnc(Nc3ccc(N4CCNCC4)cn3)nc2n(C2CCCC2)c1=O [Palbociclib] (partner 0.5 µM)
Outline: as §1

IU1-47 + Linsitinib = compound: CC1=CC(=C(N1C2=CC=C(C=C2)Cl)C)C(=O)CN3CCCCC3 [IU1-47] + C[C@]1(O)C[C@@H](c2nc(-c3ccc4ccc(-c5ccccc5)nc4c3)c3c(N)nccn32)C1 [Linsitinib] (partner 1 µM)
Outline: as §1

FG-4592 + Decitabine = compound: Cc1nc(C(=O)NCC(=O)O)c(O)c2ccc(Oc3ccccc3)cc12 [FG-4592] + Nc1ncn([C@H]2C[C@H](O)[C@@H](CO)O2)c(=O)n1 [Decitabine] (partner 2 µM)
Outline: as §1

Row | Cell Line | relative viability (IU1-47 + Crizotinib; first compound 0.08 µM) | relative viability (IU1-47 + Crizotinib; first compound 0.253 µM) | relative viability (IU1-47 + Crizotinib; first compound 0.8 µM) | relative viability (IU1-47 + Crizotinib; first compound 8 µM) | relative viability (FG-4592 + Palbociclib; first compound 0.08 µM) | relative viability (FG-4592 + Palbociclib; first compound 0.253 µM) | relative viability (FG-4592 + Palbociclib; first compound 0.8 µM) | relative viability (FG-4592 + Palbociclib; first compound 2.53 µM) | relative viability (FG-4592 + Palbociclib; first compound 8 µM) | relative viability (IU1-47 + Linsitinib; first compound 0.08 µM) | relative viability (IU1-47 + Linsitinib; first compound 0.253 µM) | relative viability (IU1-47 + Linsitinib; first compound 0.8 µM) | relative viability (IU1-47 + Linsitinib; first compound 8 µM) | relative viability (FG-4592 + Decitabine; first compound 0.08 µM) | relative viability (FG-4592 + Decitabine; first compound 0.253 µM) | relative viability (FG-4592 + Decitabine; first compound 0.8 µM) | relative viability (FG-4592 + Decitabine; first compound 2.53 µM) | relative viability (FG-4592 + Decitabine; first compound 8 µM) | relative viability (IU1-47 + Crizotinib; first compound 2.53 µM) | relative viability (IU1-47 + Linsitinib; first compound 2.53 µM)
1 | 201T | 1.08 | 1.04 | 1.05 | 1.04 | 0.349 | 0.362 | 0.341 | 0.36 | 0.341 | 1.05 | 1.02 | 1.06 | 1.11 | 0.865 | 0.839 | 0.842 | 0.859 | 0.878 |  | 
2 | A549 | 0.685 | 0.847 | 0.607 | 0.579 |  |  |  |  |  | 0.548 | 0.691 | 0.608 | 0.553 | 0.276 | 0.214 | 0.378 | 0.281 | 0.207 | 0.612 | 
3 | A-427 | 1.04 | 0.938 | 0.944 | 0.634 | 0.502 | 0.489 | 0.562 | 0.553 | 0.591 | 1.13 | 1.11 | 1.19 | 1.21 | 0.535 | 0.558 | 0.503 | 0.558 | 0.567 |  | 
4 | ABC-1 | 1.12 | 1.13 | 0.796 | 0.8 | 0.718 | 0.503 |  | 0.537 | 0.437 | 0.887 | 0.768 | 0.986 | 0.777 | 0.87 | 1.09 |  | 0.898 | 0.957 |  | 
5 | BEN | 0.841 | 0.99 | 1.03 | 0.752 | 0.433 | 0.44 | 0.463 | 0.454 | 0.475 | 1.02 | 0.934 | 1.08 | 0.863 | 0.649 | 0.651 | 0.555 | 0.738 | 0.607 | 0.816 | 0.915
6 | CAL-12T | 0.689 | 0.713 | 0.479 | 0.518 | 0.554 | 0.339 | 0.386 | 0.336 | 0.442 | 0.82 | 0.828 | 0.805 | 0.832 |  |  |  |  |  | 0.839 | 0.887
7 | COR-L23 | 0.735 | 0.704 | 0.669 | 0.609 | 0.274 | 0.28 | 0.258 | 0.274 | 0.234 | 0.943 | 1 | 0.943 | 0.982 | 0.422 | 0.371 | 0.377 | 0.393 | 0.362 | 0.817 | 0.899
8 | COR-L 105 | 0.793 | 0.839 | 0.767 | 0.627 | 0.419 | 0.433 | 0.324 | 0.34 | 0.418 | 1.02 | 0.875 | 1.08 | 0.89 | 0.649 | 0.691 | 0.597 | 0.621 | 0.641 | 0.94 | 1.03
9 | Calu-6 | 0.838 | 0.829 | 0.692 | 0.665 |  |  |  |  |  | 1.09 | 0.918 | 1.02 | 0.918 |  |  |  |  |  | 1.02 | 0.986
10 | ChaGo-K-1 | 1.04 | 1.21 | 1.24 | 0.954 | 0.9 | 0.878 | 1.01 | 0.914 | 0.958 |  |  |  |  | 0.508 | 0.427 | 0.509 | 0.493 | 0.466 | 1.31 | 
11 | EBC-1 | 0.239 | 0.202 | 0.209 | 0.229 |  |  |  |  |  | 0.664 | 0.888 | 0.925 | 0.881 |  |  |  |  |  | 0.172 | 0.964
12 | EKVX | 0.981 | 1.14 | 1.05 | 0.793 | 0.358 | 0.398 | 0.355 | 0.401 | 0.29 | 1.19 | 1.18 | 0.943 | 0.861 | 0.325 | 0.368 | 0.287 | 0.319 | 0.341 | 0.892 | 1.1
13 | EMC-BAC-2 | 0.802 | 0.863 | 0.752 | 0.75 | 0.51 | 0.529 | 0.467 | 0.503 | 0.47 | 0.857 | 0.829 | 0.841 | 0.774 | 1.01 | 0.962 |  | 1.02 | 0.942 | 0.835 | 0.864
14 | EPLC-272H | 0.957 | 0.918 | 0.862 | 0.984 | 0.323 | 0.289 | 0.327 | 0.378 | 0.283 | 1.24 | 1.27 | 1.4 | 1.16 | 0.417 | 0.302 | 0.304 | 0.368 | 0.382 |  | 
15 | H3255 | 0.989 | 1.07 | 0.908 | 0.807 | 0.326 | 0.293 | 0.299 | 0.317 | 0.304 | 1.16 | 1.17 | 0.957 | 0.914 | 0.702 | 0.585 | 0.6 | 0.592 | 0.557 | 0.778 | 0.905
16 | HARA | 0.945 | 1.17 | 1.29 | 0.719 | 0.276 | 0.191 | 0.261 | 0.286 | 0.25 | 1.19 | 1.13 | 1.08 | 0.678 |  |  |  | 0.676 | 0.559 | 1.12 | 0.931
17 | HCC-15 | 0.949 | 0.879 | 0.908 | 0.704 | 0.73 | 0.767 | 0.684 | 0.733 | 0.755 | 0.931 | 0.967 | 0.9 | 0.801 | 0.677 | 0.585 | 0.606 | 0.661 | 0.765 | 0.825 | 0.917
18 | HCC-44 | 0.801 | 0.784 | 0.809 | 0.799 | 0.923 | 0.954 | 0.91 | 0.943 | 0.97 | 0.668 | 0.662 | 0.649 | 0.572 | 0.902 | 0.941 | 0.914 | 0.93 | 1 | 0.77 | 0.664
